These results are taken from ChEMBL document CHEMBL4118195, “Synthesis and profiling of benzylmorpholine 1,2,4,5-tetraoxane analogue N205: Towards tetraoxane scaffolds with potential for single dose cure of malaria” (Bioorg Med Chem, 2018).

Bounds are passed on as bounds.

Series [1] is described as follows: Metabolic stability in human blood after 2 to 4 hrs by LC-MS method. It counts as ADME, tissue-based.
Series [2] has as its system Plasmodium falciparum. Nature of the series: Antimalarial activity against Plasmodium falciparum 3D7 infected in human erythrocytes after 48 hrs by SYBR Green I dye-based fluorescence assay. It counts as functional, organism-based. Particulars: 3D7, 48 h.
A short description of series [3]: Metabolic stability in rat blood after 2 to 4 hrs by LC-MS method. It counts as ADME, tissue-based.
For series [4], the system named is Plasmodium berghei. Kind of series: Antimalarial activity against Plasmodium berghei infected in mouse assessed as reduction in parasitemia at 30 mg/kg, po administered as single dose measured on day 3 relative to control. The format is functional. Set-up: scale not given: the % may be the effect or the level left.
Series [5] can be described thus: Half life in iv dosed Sprague-Dawley rat plasma administered as 10 mins infusion by LC/MS analysis. It counts as ADME, organism-based.
Series [6] is described as follows: Drug degradation in human blood after 4 hrs by LC-MS method. It counts as ADME, tissue-based. Particulars: read-out: Drug degradation.
Series [7] is described as follows: Protein binding in human liver microsomes at 1 uM by ultracentrifugation method. The format is ADME, microsome. Particulars: read-out: PB. (In general: Liver microsomes are a subcellular fraction often used to study metabolism.)
Series [8] is described as follows: Solubility in 0.01 N HCl buffer at pH 2 after 4 hrs by HPLC analysis. The format is physicochemical.
Series [9] is described as follows: Protein binding in human plasma at 2000 ng/ml after 6 hrs by equilibrium dialysis method. The format is ADME, cell-free. Particulars: read-out: PB.
Series [10] is described as follows: Solubility in PH 7.4 PBS buffer after 4 hrs by HPLC analysis. It counts as physicochemical.
The nature of series [11]: Solubility in pH 5 FeSSIF after 4 hrs by HPLC analysis. The format is physicochemical.
Series [12] in a line: Solubility in 0.1 N HCl buffer at pH 1 after 4 hrs by HPLC analysis. It counts as physicochemical.
The nature of series [13]: Half life in rat blood after 4 hrs by LC-MS method. It counts as ADME, tissue-based.
A short description of series [14]: Volume of distribution at steady state in Sprague-Dawley rat plasma at 100 mg/kg, po administered via gavage or iv administered as 10 mins infusion by LC/MS analysis. It counts as ADME, organism-based. Particulars: read-out: Vdss.
The nature of series [15]: Solubility in pH 2 citric acid monophosphate buffer after 4 hrs by HPLC analysis. It counts as physicochemical.
A short description of series [16]: Aqueous solubility after 4 hrs by HPLC analysis. The format is physicochemical. Particulars: water.
Series [17] concerns Plasmodium berghei. Kind of series: Antimalarial activity against Plasmodium berghei infected in mouse assessed as mouse mean survival days at 30 mg/kg, po administered as single dose. The format is functional.
Series [18] can be described thus: Clearance in Sprague-Dawley rat plasma at 100 mg/kg, po administered via gavage or administered as 10 mins infusion iv by LC/MS analysis. It counts as ADME, organism-based.
Series [19] in a line: Solubility in pH 6.5 FaSSIF after 4 hrs by HPLC analysis. The format is physicochemical.
Series [20] in a line: Drug level in rat liver microsomes treated with N205 at 5 uM after 60 mins by UPLC-MS analysis. The format is ADME, microsome. Particulars: 1 h.
The nature of series [21]: Drug level in human liver microsomes treated with N205 at 5 uM after 60 mins by UPLC-MS analysis. It counts as ADME, microsome. Particulars: 1 h.
Series [22] is described as follows: Drug level in mouse liver microsomes treated with N205 at 5 uM after 60 mins by UPLC-MS analysis. Particulars: 1 h. The format is ADME, microsome.
Series [23] in a line: Retention time of the compound. It counts as physicochemical.
Series [24] is described as follows: Half life in Sprague-Dawley rat at 10 mg/kg, po. The format is ADME, organism-based. Particulars: in vivo.
Series [25] in a line: Half life in rat blood by LC-MS method. It counts as ADME, tissue-based.
In series [26] the test system is Plasmodium falciparum. Nature of the series: Antimalarial activity against Plasmodium falciparum Pf3D70087/N9 infected in humanized NOD.Cg-Prkdcscid Il2rgtm1Wjl/SzJ mouse assessed as reduction in parasitemia administered 4 daily doses by SYTO-16 dye-based flow cytometric analysis. The format is functional.
Series [27] in a line: Oral bioavailability in Sprague-Dawley rat at 100 mg/kg administered via gavage by LC/MS analysis. Particulars: in vivo. It counts as ADME, organism-based.
For series [28], the system named is Plasmodium falciparum. Nature of the series: Antimalarial activity against Plasmodium falciparum Pf3D70087/N9 infected in po dosed humanized NOD.Cg-Prkdcscid Il2rgtm1Wjl/SzJ mouse assessed as compound concentration in whole blood require to reduce parasitemia in peripheral blood by 90% administered as single dose measured on day 7 post infection by SYTO-16 dye-based flow cytometric analysis. It counts as functional, organism-based. (In general: In flow cytometry, cells or beads pass a laser one at a time.)

The subject of series [29] is Plasmodium falciparum. Kind of series: Antimalarial activity against Plasmodium falciparum Pf3D70087/N9 infected in po dosed humanized NOD.Cg-Prkdcscid Il2rgtm1Wjl/SzJ mouse assessed as reduction in parasitemia administered as single dose measured on day 7 post infection by SYTO-16 dye-based flow cytometric analysis. It counts as functional. Particulars: 168 h.

Regarding `FC1CCN(Cc2ccc(C3CCC4(CC3)OOC3(OO4)C4CC5CC(C4)CC3C5)cc2)CC1` (centres undefined), the Stability result in series [1] and in series [3] was “Stable” in each case. For the same molecule, the IC50 in the series with Plasmodium falciparum [2] was 1.8 nM.

As for `CS(=O)(=O)O.c1cc(C2CCC3(CC2)OOC2(OO3)C3CC4CC(C3)CC2C4)ccc1CN1CCOCC1` (centres undefined), the Activity with Plasmodium berghei [4] stood at 99.3%. In addition, the half-life was 6.35 h in series [5] and 8 h in series [13]. Also, in series [6], the metabolised at 4 h amounted to 10%. The fraction unbound at 1 µM in series [7] was less than 0.001. In addition, the solubility at 4 h in series [8] was 172 µg/mL; in [10], less than 0.1 µg/mL; in series [12] it was 17 µg/mL; in [15] it was greater than 9000 µg/mL; in series [16], greater than 9000 µg/mL; in series [19], 18 µg/mL. In addition, the fraction unbound at 6 h, 2000 ng/ml in series [9] was less than 0.001. The same molecule gave a solubility in [11] (simulated gi fluid, pH 5, 4 h) of 760 µg/mL. Further, in series [14], the Vd is 11 L/kg. Further, the MSD in the series on Plasmodium berghei [17] was 25 days. Besides, the clearance in series [18] came to 77 mL/min/kg.

In the case of `CC(C)(N)CNC(=O)CC1CCC2(CC1)OOC1(O2)C2CC3CC(C2)CC1C3` (centres undefined), the Activity in the series with Plasmodium berghei [4] worked out at 99.98%. Further, the MSD in the series with Plasmodium berghei [17] is 10.2 days.

As for `O=C1CCC(c2ccc(CN3CCOCC3)cc2)CC1`, the Drug metabolism entry in series [20], in [21] and in series [22] was “Metabolite_Detected” each time. Further, the Retention_time in series [23] worked out at 0.84 min.

As for `CN1CCN(C2CCN(C(=O)CC3CCC4(CC3)OOC3(OO4)C4CC5CC(C4)CC3C5)CC2)CC1` (centres undefined), the Activity in the series with Plasmodium berghei [4] is reported as 99.98%. The molecule further gave a half-life in series [24] of 3.5 h. In addition, in the series with Plasmodium berghei [17], the MSD is 11.4 days.

As for `OC1CCC(c2ccc(CN3CCOCC3)cc2)CC1` (centres undefined), the Drug metabolism entry in [20], in [21] and in series [22] was “Metabolite_Detected” each time. In series [23], the Retention_time is 0.86 min.

The molecule `O=C(c1ccc(C2CCC3(CC2)OOC2(OO3)C3CC4CC(C3)CC2C4)cc1)N1CCSCC1` (centres undefined) registered an IC50 in the series with Plasmodium falciparum [2] of 15 nM. Moreover, in series [25], the half-life was less than 4 h.

Consider `NC1CCN(C(=O)c2ccc(C3CCC4(CC3)OOC3(OO4)C4CC5CC(C4)CC3C5)cc2)CC1` (centres undefined), for which, in the series on Plasmodium berghei [4], the Activity was determined as 99%. For the same molecule, the midpoint of inhibition with Plasmodium falciparum [2], the IC50, lay at 4.2 nM. In the series on Plasmodium berghei [17], the MSD is 8 days. In addition, in series [25], the half-life was less than 4 h.

For the molecule `O=C(c1ccc(C2CCC3(CC2)OOC2(OO3)C3CC4CC(C3)CC2C4)cc1)N1CCOCC1` (centres undefined), in the series with Plasmodium falciparum [2], half-maximal inhibition (IC50) required 7.1 nM. In addition, the half-life in [25] was less than 4 h.

With `C[C@H]1[C@H](OC(=O)CCC(=O)O)O[C@@H]2O[C@@]3(C)CC[C@H]4[C@H](C)CC[C@@H]1[C@@]24OO3` [ARTESUNATE], the Activity in the series with Plasmodium berghei [4] is 99.09%. The ED90 in the series on Plasmodium falciparum [26] was 10 mg/kg. The MSD with Plasmodium berghei [17] came to 6.8 days.

As for `CS(=O)(=O)O.FC1CCN(Cc2ccc(C3CCC4(CC3)OOC3(OO4)C4CC5CC(C4)CC3C5)cc2)CC1` (centres undefined), the Activity in the series on Plasmodium berghei [4] worked out at 99.98%. In the series with Plasmodium berghei [17], the MSD turned out to be 13 days.

With `CS(=O)(=O)O.c1cc(C2CCC3(CC2)OOC2(O3)C3CC4CC(C3)CC2C4)ccc1OCCN1CCOCC1` (centres undefined), the solubility at 4 h was 240 µg/mL in series [8]; greater than 1500 µg/mL in series [11] (FeSSIF, pH 5); 34 µg/mL in series [12]; greater than 8000 µg/mL in series [15]; 6800 µg/mL in series [16]; 120 µg/mL in series [19]. In series [27], this molecule registered a bioavailability of 100%. The Vd in [14] is 18 L/kg.

For `CN1CCN(C(=O)c2ccc(C3CCC4(CC3)OOC3(OO4)C4CC5CC(C4)CC3C5)cc2)CC1` (centres undefined), the IC50 with Plasmodium falciparum [2] was found to be 6.4 nM. Moreover, the half-life in series [25] is less than 4 h.

Take `O=C(NCC1CCNCC1)c1ccc(C2CCC3(CC2)OOC2(OO3)C3CC4CC(C3)CC2C4)cc1` (centres undefined): half-maximal inhibition with Plasmodium falciparum [2] (IC50) required 5.3 nM. The half-life in series [25] was less than 4 h.

As to `c1cc(C2CCC3(CC2)OOC2(O3)C3CC4CC(C3)CC2C4)ccc1OCCN1CCOCC1` (centres undefined) [listing 1 of 2 here], the AUCED90 with Plasmodium falciparum [28] was found to be 0.68 µg·h/mL.

`NCCNC(=O)c1ccc(C2CCC3(CC2)OOC2(OO3)C3CC4CC(C3)CC2C4)cc1` (centres undefined) came in with an IC50 in the series on Plasmodium falciparum [2] of 1.1 nM. The same molecule displayed a half-life in [25] of less than 4 h.

In turn, `CNCCNC(=O)c1ccc(C2CCC3(CC2)OOC2(OO3)C3CC4CC(C3)CC2C4)cc1` (centres undefined) had an IC50 in the series with Plasmodium falciparum [2] of 0.84 nM. The molecule also showed a half-life in series [25] of less than 4 h.

In turn, `NC1CN(C(=O)c2ccc(C3CCC4(CC3)OOC3(OO4)C4CC5CC(C4)CC3C5)cc2)C1` (centres undefined) registered an IC50 in the series with Plasmodium falciparum [2] of 33 nM. Also, the half-life in series [25] was less than 4 h.

As to `c1cc(C2CCC3(CC2)OOC2(OO3)C3CC4CC(C3)CC2C4)ccc1CN1CCOCC1` (centres undefined), the AUCED90 in the series on Plasmodium falciparum [28] was less than 0.75 µg·h/mL.

For `c1cc(C2CCC3(CC2)OOC2(O3)C3CC4CC(C3)CC2C4)ccc1OCCN1CCOCC1` (centres undefined) [listing 2 of 2 here], the Activity in the series on Plasmodium berghei [4] is recorded as 99.4%. For the same molecule, in the series with Plasmodium falciparum [2], 8 nM corresponded to half-maximal inhibition (IC50). In addition, the ED90 with Plasmodium falciparum [29] was determined as 6.2 mg/kg. Moreover, the MSD with Plasmodium berghei [17] was found to be 30 days.

Consider `O=C(c1ccc(C2CCC3(CC2)OOC2(OO3)C3CC4CC(C3)CC2C4)cc1)N1CCCNCC1` (centres undefined), for which the IC50 in the series on Plasmodium falciparum [2] came out at 0.82 nM. In series [25], the half-life was less than 4 h.

On to `O=C(c1ccc(C2CCC3(CC2)OOC2(OO3)C3CC4CC(C3)CC2C4)cc1)N1CCNCC1` (centres undefined), for which, in the series on Plasmodium berghei [4], the Activity is listed as 99%. Besides, in the series with Plasmodium falciparum [2], half-maximal inhibition (IC50) was put at 3 nM. Moreover, the MSD with Plasmodium berghei [17] was found to be 10 days. Moreover, in series [25], the half-life was less than 4 h.

Regarding `OCCNCc1ccc(C2CCC3(CC2)OOC2(OO3)C3CC4CC(C3)CC2C4)cc1` (centres undefined), the Drug metabolism result in [20], in series [21] and in [22] was “Metabolite_Detected” in each case. In series [23], this molecule returned a Retention_time of 3.54 min.

One may read the IC50 as the concentration needed to halve the response being measured. As a reminder, the half-life is how long it takes for the measured level to halve. The solubility is the dissolved amount per volume that the medium holds. By bioavailability is commonly meant dose-corrected exposure relative to a reference, in per cent.
